This is an account of results in US20070276126A1, “Cell adhesion and extracellular matrix proteins” (Incyte Corporation, priority 2002, published 2007).

In experiment [1] the test system is expression of SEQ ID NO:78 in PHA blasts (T cell blasts derived from PBMCs). The experiment is described as follows: Microarray analysis of SEQ ID NO:78 expression in reactivated PHA blasts versus untreated PHA blasts. It counts as cell-based, human. Particulars: PHA blasts stimulated for 2 hours, versus matching untreated PHA blasts, one donor tested. On the procedure: (§1) Total RNA is isolated from tissue samples using the guanidinium thiocyanate method and poly(A)^+ RNA is purified using the oligo-(dT) cellulose method. Each poly(A)^+ RNA sample is reverse transcribed using MMLV reverse-transcriptase, 0.05 pg/μl oligo-(dT) primer (21 mer), 1× first strand buffer, 0.03 units/μl RNase inhibitor, 500 μM dATP, 500 μM dGTP, 500 μM dTTP, 40 μM dCTP, 40 μM dCTP-Cy3 (BDS) or dCTP-Cy5 (Amersham Biosciences). The reverse transcription reaction is performed in a […] containing 200 ng poly(A)^+ RNA with GEMBRIGHT kits (Incyte). Specific control poly(A)^+ RNAs are synthesized by in vitro transcription from non-coding yeast genomic DNA. […]
(§2) Reporter-labeled hybridization complexes are detected with a microscope equipped with an Innova 70 mixed gas 10 W laser (Coherent, Inc., Santa Clara Calif.) capable of generating spectral lines at 488 nm for excitation of Cy3 and at 632 nm for excitation of Cy5. […]
(§3) A grid is superimposed over the fluorescence signal image such that the signal from each spot is centered in each element of the grid. The fluorescence signal within each element is then integrated to obtain a numerical value corresponding to the average intensity of the signal. […]

Experiment [2] relates to expression of SEQ ID NO:78 in normal and Tangier disease derived fibroblasts. The experiment is described as follows: Microarray analysis of SEQ ID NO:78 expression in fibroblasts cultured in the presence versus absence of cholesterol. In kind it is cell-based, human. Particulars: fibroblasts cultured in the presence of cholesterol versus same cell type in the absence of cholesterol (one of 'both types of comparisons'). On the procedure:
as §1, §2, §3

Structures are written as SMILES.

As for `CCCCCCCCCCCCCC(=O)O[C@@H]1[C@@H](C)[C@@]2(O)[C@@H](C=C(CO)C[C@]3(O)C(=O)C(C)=C[C@@H]23)[C@@H]2C(C)(C)[C@]12OC(C)=O` [PMA, phorbol myristate acetate], the “downregulation of SEQ ID NO:78” value in experiment [1] is given as “at least two”.

Turning to `CC(C)CCC[C@@H](C)[C@H]1CC[C@H]2[C@@H]3CC=C4C[C@@H](O)CC[C@]4(C)[C@H]3CC[C@]12C` [cholesterol], in experiment [2], the “downregulation of SEQ ID NO:78” value was “at least two”.
